“Also recorded” adds a separate entry of the source.
Experiments:
MMP-1 mRNA = MMP-1 mRNA accumulation in synovial fibroblasts (real time PCR); assay type: cell-based, human
Method: Methods: The effect of RXR antagonists on the activity of synovial fibroblasts, dependent on their state of activation, i.e. modified by a concomitant stimulation by the inflammatory cytokine Interleukin-1β (IL-1β), was determined. Furthermore, it was determined whether this was accompanied by a modulation in the accumulation of the mRNA encoding catabolic enzyme matrix metalloproteinase-1 (MMP-1), responsible for degradation of human cartilage and consequently joint destruction in man. Adherent synovial fluid cells taken from a patient with RA were used after 5 passages in an in vitro assay for cartilage destruction. The cells incubated in flasks coated with 0.1% (0.1 g/100 ml) human cartilage powder were fixed using Matrigel® (BD Biosciences, Becton, Dickinson & Co., Boston, Mass., USA). The release of sulphated glycosaminoglycan (sGAG) into the culture medium was monitored by a commercial colorimetric test according to a method described by S. Björnsson, see Anal. Biochem. 256, 229-237 (1998) using an alcian blue dot plot analysis, and the accumulation of mRNA encoding MMP-1 was quantified by real time PCR (TaqMan® (Roche Diagnostics, Basle, Switzerland)). […] This was conducted in the presence or absence of IL-1β (100 pg/ml).

synovial fibroblasts = test: In vitro cartilage degradation by RA synovial fibroblasts (sGAG release); assay type: cell-based, human; details: for Release of sGAG: 14 days
Method: Methods: The effect of RXR antagonists on the activity of synovial fibroblasts, dependent on their state of activation, i.e. modified by a concomitant stimulation by the inflammatory cytokine Interleukin-1β (IL-1β), was determined. Furthermore, it was determined whether this was accompanied by a modulation in the accumulation of the mRNA encoding catabolic enzyme matrix metalloproteinase-1 (MMP-1), responsible for degradation of human cartilage and consequently joint destruction in man. Adherent synovial fluid cells taken from a patient with RA were used after 5 passages in an in vitro assay for cartilage destruction. The cells incubated in flasks coated with 0.1% (0.1 g/100 ml) human cartilage powder were fixed using Matrigel® (BD Biosciences, Becton, Dickinson & Co., Boston, Mass., USA). The release of sulphated glycosaminoglycan (sGAG) into the culture medium was monitored by a commercial colorimetric test according to a method described by S. Björnsson, see Anal. Biochem. 256, 229-237 (1998) using an alcian blue dot plot analysis, and the accumulation of mRNA encoding MMP-1 was quantified by real time PCR (TaqMan® (Roche Diagnostics, Basle, Switzerland)).
The retinoid agonists all-trans retinoic acid and 9-cis retinoic acid, both physiological metabolites of vitamin A, as well as the RXR antagonist compound A, diluted first in ethanol, and then diluted with vehicle or medium to the desired dose/concentration were tested in a time course (0-35 days for the in vitro assay, 0-48 hours for MMP-1 mRNA, see tables 7, 8 and 10) and dose-dependent (10^−7 to 10^−9 M, see tables 5, 6 and 9). This was conducted in the presence or absence of IL-1β (100 pg/ml).

MMP-9 = MMP-9 protein expression in human PBMC (zymography and ELISA); assay type: cell-based; details: for MMP-9 Inhibition of expression: vs vehicle control (0%)
Excerpt: For details on the method see: (A) Effect of RXR antagonists on expression of MMP-9 protein in human peripheral blood mononuclear cells (PBMC) in vitro, Leppert D et al, J Immunol 1995, 154:4379-4389; (B) Leppert D et al, Ann Neurol 1996, 40: 846-852; (C) Leppert D et al, Brain 1998, 121, 2327-2334; (D) Lindberg R et al, Brain 2001, 124: 1743-1753; (E) Gilli F et al, Brain 2004, 127: 1-10, which are incorporated by reference herein, especially with regard to the method.
Method: Fresh human peripheral blood mononuclear cells (PBMC) were prepared and expanded by stimulation with PHA as described in Leppert D et al, Ann Neurol 1996; 40: 846-852. 1×10^6 cells were pretreated with the RXR antagonist compound A in concentrations of 10^−6 M, 10^−7 M and 10^−8 M for 18 hours. Vehicle was used as control.
In two different experiments, after pretreatment with compound A, PBMCs were stimulated for 24 hours with Interleukin-2 (IL-2) 50 U/ml in one group, or not stimulated with IL-2 in another group.
The effect of the mentioned concentrations of compound A was compared with vehicle controls in the IL-2 stimulated and in the non IL-2 stimulated cultures of PBMC. The expression of MMP-9 protein was determined by analysis with zymography and ELISA, see especially references (A) under “Zymographic analysis of conditioned medium (CM)” and (C) under “ELISA (enzyme linked immunosorbent assay) for MMP-9” mentioned above, respectively.

[1] = 10^−7 M, after 24 hours, vehicle control 1
[2] = 10^−8 M, 12 hours, control 1.13
[3] = 10^−8 M, 48 hours, control 1.09
[4] = 10^−8 M, after 24 hours, vehicle control 1
[5] = 10^−9 M, after 24 hours, vehicle control 1
[6] = absence of IL-1β, 10^−7 M, vehicle control 48
[7] = absence of IL-1β, 10^−8 M, vehicle control 48
[8] = absence of IL-1β, 10^−8 M, day 7, control 23
[9] = absence of IL-1β, 10^−8 M, day 14, control 48
[10] = absence of IL-1β, 10^−8 M, day 21, control 84
[11] = absence of IL-1β, 10^−8 M, day 28, control 112
[12] = absence of IL-1β, 10^−8 M, day 35, control 117
[13] = absence of IL-1β, 10^−9 M, vehicle control 48
[14] = presence of 100 pg/ml IL-1β, 10^−7 M, vehicle control 173
[15] = presence of 100 pg/ml IL-1β, 10^−8 M, vehicle control 173
[16] = presence of 100 pg/ml IL-1β, 10^−8 M, day 7, control 86
[17] = presence of 100 pg/ml IL-1β, 10^−8 M, day 14, control 173
[18] = presence of 100 pg/ml IL-1β, 10^−8 M, day 21, control 212
[19] = presence of 100 pg/ml IL-1β, 10^−8 M, day 28, control 249
[20] = presence of 100 pg/ml IL-1β, 10^−8 M, day 35, control 271
[21] = presence of 100 pg/ml IL-1β, 10^−9 M, vehicle control 173

SMILES | MMP-1 mRNA (fold increase of baseline value) (MMP-1 mRNA; [1]) [relative units] | MMP-1 mRNA (fold increase of baseline value) (MMP-1 mRNA; 10^−8 M, 0 hours) [relative units] | MMP-1 mRNA (fold increase of baseline value) (MMP-1 mRNA; 10^−8 M, 2 hours) [relative units] | MMP-1 mRNA (fold increase of baseline value) (MMP-1 mRNA; 10^−8 M, 6 hours) [relative units] | MMP-1 mRNA (fold increase of baseline value) (MMP-1 mRNA; [2]) [relative units] | MMP-1 mRNA (fold increase of baseline value) (MMP-1 mRNA; 10^−8 M, 24 hours) [relative units] | MMP-1 mRNA (fold increase of baseline value) (MMP-1 mRNA; [3]) [relative units] | MMP-1 mRNA (fold increase of baseline value) (MMP-1 mRNA; [4]) [relative units] | MMP-1 mRNA (fold increase of baseline value) (MMP-1 mRNA; [5]) [relative units] | Release of sGAG (synovial fibroblasts; [6]) [µg/mL] | Release of sGAG (synovial fibroblasts; [7]) [µg/mL] | Cumulative sGAG release (synovial fibroblasts; [8]) [µg/mL] | Cumulative sGAG release (synovial fibroblasts; [9]) [µg/mL] | Cumulative sGAG release (synovial fibroblasts; [10]) [µg/mL] | Cumulative sGAG release (synovial fibroblasts; [11]) [µg/mL] | Cumulative sGAG release (synovial fibroblasts; [12]) [µg/mL] | Release of sGAG (synovial fibroblasts; [13]) [µg/mL] | Effect on cartilage destruction in vitro (basal activity of synovial fibroblasts) (synovial fibroblasts; absence of IL-1β, in words) | Release of sGAG (synovial fibroblasts; [14]) [µg/mL] | Release of sGAG (synovial fibroblasts; [15]) [µg/mL] | also measured
CC1=C(/C=C/C(C)=C\C=C\C(C)=C\C(=O)O)C(C)(C)CCC1 [9-cis RA, 9-cis retinoic acid, reference compound] | 2.60 | 1 | 0.98 | 1.31 | 3.39 | 3.79 | 1.47 | 3.39 | 1.54 | 189 | 107 | 44 | 107 | 206 | 253 | 292 | 64 | increased cartilage destruction in vitro in a dose-dependent manner | 221 | 189 | Effect on cartilage destruction in vitro, time course (synovial fibroblasts; presence and absence of IL-1β, in words): markedly increased cartilage destruction; Cumulative sGAG release (synovial fibroblasts; [16]): 68 µg/mL; Cumulative sGAG release (synovial fibroblasts; [17]): 189 µg/mL; Cumulative sGAG release (synovial fibroblasts; [18]): 330 µg/mL; Cumulative sGAG release (synovial fibroblasts; [19]): 407 µg/mL; Cumulative sGAG release (synovial fibroblasts; [20]): 441 µg/mL; Release of sGAG (synovial fibroblasts; [21]): 204 µg/mL
CCCCOc1c(\C(C)=C/C=C/C(C)=C/C(=O)O)cc(C(C)(C)C)cc1C(C)(C)C [compound A, (2E,4E,6Z)-7-[2-butoxy-3,5-bis(1,1-dimethylethyl)phenyl]-3-methyl-2,4,6-octatrienoic acid] | 0.68 | 1 | 1.13 | 0.81 | 1.12 | 0.87 | 0.83 | 1.12 | 1.05 | 39 | 57 | 44 | 57 | 57 | 39 | 34 | 46 | no effect | 41 | 89 | Effect on production, release and/or activity (expression) of MMP-9 (MMP-9; PBMC, IL-2 stimulated and not stimulated, ELISA and zymography, in words): very strong suppressive effect; also recorded: marked suppressive or inhibitory effect; MMP-9 Protein (total protein in the supernatant) (MMP-9; PBMCs not stimulated with IL-2, 10^−6 M, 18 h pretreatment): 33 ng/mL; MMP-9 Inhibition of expression (MMP-9; PBMCs not stimulated with IL-2, 10^−6 M): 53%; MMP-9 Protein (total protein in the supernatant) (MMP-9; PBMCs not stimulated with IL-2, 10^−7 M, 18 h pretreatment): 43 ng/mL; MMP-9 Inhibition of expression (MMP-9; PBMCs not stimulated with IL-2, 10^−7 M): 39%; MMP-9 Protein (total protein in the supernatant) (MMP-9; PBMCs not stimulated with IL-2, 10^−8 M, 18 h pretreatment): 51 ng/mL; MMP-9 Inhibition of expression (MMP-9; PBMCs not stimulated with IL-2, 10^−8 M): 28%; MMP-9 Protein (total protein in the supernatant) (MMP-9; PBMCs stimulated with IL-2 50 U/ml 24 h, 10^−6 M): 29 ng/mL; MMP-9 Protein (total protein in the supernatant) (MMP-9; PBMCs stimulated with IL-2 50 U/ml 24 h, 10^−7 M): 41 ng/mL; MMP-9 Protein (total protein in the supernatant) (MMP-9; PBMCs stimulated with IL-2 50 U/ml 24 h, 10^−8 M): 40 ng/mL; MMP-9 Inhibition of expression (MMP-9; PBMCs stimulated with IL-2, 10^−6 M): 52%; MMP-9 Inhibition of expression (MMP-9; PBMCs stimulated with IL-2, 10^−7 M): 33%; MMP-9 Inhibition of expression (MMP-9; PBMCs stimulated with IL-2, 10^−8 M): 34%; Cumulative sGAG release (synovial fibroblasts; [16]): 67 µg/mL; Cumulative sGAG release (synovial fibroblasts; [17]): 89 µg/mL; Cumulative sGAG release (synovial fibroblasts; [18]): 89 µg/mL; Cumulative sGAG release (synovial fibroblasts; [19]): 173 µg/mL; Cumulative sGAG release (synovial fibroblasts; [20]): 56 µg/mL; Release of sGAG (synovial fibroblasts; [21]): 144 µg/mL; Effect on IL-1β dependent cartilage destruction (sGAG) (synovial fibroblasts; presence of IL-1β, in words): markedly inhibited

Source: US20090016991A1, “Rxr Antagonist Treatment Against Multiple Sclerosis” (priority 2004, published 2009)
